Test results reported in ChEMBL document CHEMBL1201862, “PubChem BioAssay data set” (2004).
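1) Cells in 96-well plates. 2) Compound, 48 h, 5 concentrations. 3) Linear interpolation between surrounding doses. 4) Unreached endpoint = highest concentration. The concentration for 50% growth inhibition is given as GI50.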 The source made the active and inactive calls. No stated cut-off is given here; in the data, active = GI50 up to about 1.1 µM and inactive = higher.

Assays:
Experiment in all cases: DTP human tumour cell line panel, 48 h
SNB-78 = system: SNB-78
HL-60 = system: HL-60
HOP-62 = system: HOP-62
SNB-19 = system: SNB-19
KM12 = system: KM12
RXF 393 = system: RXF 393
A549 = system: A549
M14 = system: M14
DMS-273 = system: DMS-273
SK-OV-3 = system: SK-OV-3
OVCAR-5 = system: OVCAR-5
SK-MEL-28 = system: SK-MEL-28
SR = system: SR
NCI-H23 = system: NCI-H23
MOLT-4 = system: MOLT-4
K562 = system: K562
NCI-H226 = system: NCI-H226
HT-29 = system: HT-29
HOP-92 = system: HOP-92
UO-31 = system: UO-31
U-251 = system: U-251
NCI-H460 = system: NCI-H460
NCI-H522 = system: NCI-H522
CCRF-CEM = system: CCRF-CEM
IGROV-1 = system: IGROV-1
A498 = system: A498
EKVX = system: EKVX
UACC-62 = system: UACC-62
SF-268 = system: SF-268
TK-10 = system: TK-10
RPMI-8226 = system: RPMI-8226
HCC 2998 = system: HCC 2998
ACHN = system: ACHN
COLO 205 = system: COLO 205
LXFL 529 = system: LXFL 529
DMS-114 = system: DMS-114
LOX IMVI = system: LOX IMVI
KM-20L2 = system: KM-20L2
SK-MEL-2 = system: SK-MEL-2
SW-620 = system: SW-620
OVCAR-3 = system: OVCAR-3
SNB-75 = system: SNB-75
HOP-18 = system: HOP-18
SN12C = system: SN12C
SF-539 = system: SF-539
OVCAR-8 = system: OVCAR-8
CAKI-1 = system: CAKI-1
786-0 = system: 786-0
M19-MEL = system: M19-MEL
Malme-3M = system: Malme-3M
SF-295 = system: SF-295
UACC-257 = system: UACC-257
HCT-15 = system: HCT-15
DLD-1 = system: DLD-1
HCT-116 = system: HCT-116
SK-MEL-5 = system: SK-MEL-5
OVCAR-4 = system: OVCAR-4

Measured: GI50

COC(=O)CN1CCS/C1=N/C#N
inactive: SNB-78 > 100 µM | HL-60 > 100 µM | HOP-62 > 100 µM | SNB-19 > 100 µM | KM12 > 100 µM | RXF 393 > 100 µM | A549 > 100 µM | M14 > 100 µM | DMS-273 > 100 µM | SK-OV-3 > 100 µM | OVCAR-5 > 100 µM | SK-MEL-28 > 100 µM | SR > 100 µM | NCI-H23 > 100 µM | MOLT-4 > 100 µM | K562 > 100 µM | NCI-H226 > 100 µM | HT-29 > 100 µM | HOP-92 > 100 µM | UO-31 > 100 µM | U-251 > 100 µM | NCI-H460 > 100 µM | NCI-H522 > 100 µM | CCRF-CEM > 100 µM | IGROV-1 > 100 µM | A498 > 100 µM | EKVX > 100 µM | UACC-62 > 100 µM | SF-268 > 100 µM | TK-10 > 100 µM

CC(C)(C)C1=CC(=C2C(=O)C(=O)c3ccccc3C2=O)C=C(C(C)(C)C)C1=O
35.5 µM: HCT-15
active: A498 < 0.01 µM
inactive: RPMI-8226 23.8 µM | SNB-78 > 100 µM | HL-60 29.4 µM | HOP-62 > 100 µM | SNB-19 > 100 µM | KM12 > 100 µM | A549 > 100 µM | HCC 2998 > 100 µM | ACHN 83.9 µM | COLO 205 42.1 µM | M14 37.5 µM | LXFL 529 26.9 µM | DMS-273 59.8 µM | SK-OV-3 > 100 µM | DMS-114 31.3 µM | OVCAR-5 > 100 µM | LOX IMVI 37.1 µM | KM-20L2 > 100 µM | SK-MEL-28 > 100 µM | SK-MEL-2 > 100 µM | SW-620 36 µM | OVCAR-3 33 µM | SNB-75 > 100 µM | NCI-H23 32.7 µM | HOP-18 36.2 µM | SN12C 72.9 µM | K562 32.1 µM | SF-539 82.2 µM | OVCAR-8 51.3 µM | HT-29 > 100 µM | HOP-92 28.8 µM | UO-31 43.7 µM | U-251 > 100 µM | NCI-H460 85.5 µM | NCI-H522 18.7 µM | CAKI-1 52.1 µM | 786-0 34.5 µM | CCRF-CEM 36.5 µM | M19-MEL 75.3 µM | Malme-3M 26.5 µM | IGROV-1 24.1 µM | SF-295 > 100 µM | UACC-257 29.4 µM | EKVX 35.5 µM | UACC-62 32.7 µM | SF-268 > 100 µM | TK-10 84.9 µM | DLD-1 36.6 µM | HCT-116 19.2 µM | SK-MEL-5 48.5 µM

COC(=O)C(Cc1nc2ccc(Cl)cc2nc1O)/C(=N\N)C(=O)Nc1cc(C)c(Cl)cc1S(=O)(=O)O (stereo unspecified)
> 100 µM: HCT-15
inactive: RPMI-8226 88.3 µM | SNB-78 > 100 µM | HOP-62 > 100 µM | SNB-19 > 100 µM | KM12 > 100 µM | A549 > 100 µM | HCC 2998 > 100 µM | ACHN > 100 µM | COLO 205 > 100 µM | M14 > 100 µM | LXFL 529 > 100 µM | SK-OV-3 > 100 µM | DMS-114 73.5 µM | OVCAR-5 75.7 µM | LOX IMVI > 100 µM | SK-MEL-28 > 100 µM | SK-MEL-2 > 100 µM | SR 99.8 µM | SW-620 > 10 µM | OVCAR-3 > 100 µM | NCI-H23 > 100 µM | MOLT-4 > 100 µM | SN12C > 100 µM | K562 > 100 µM | SF-539 > 100 µM | OVCAR-8 > 100 µM | NCI-H226 47.1 µM | HT-29 > 100 µM | HOP-92 24.3 µM | UO-31 > 100 µM | U-251 > 100 µM | NCI-H460 > 100 µM | NCI-H522 90.6 µM | CAKI-1 > 100 µM | 786-0 > 100 µM | CCRF-CEM 43.1 µM | Malme-3M > 100 µM | IGROV-1 > 100 µM | SF-295 > 100 µM | A498 70.3 µM | UACC-257 > 100 µM | EKVX > 100 µM | UACC-62 > 100 µM | OVCAR-4 > 100 µM | SF-268 > 100 µM | DLD-1 > 100 µM | HCT-116 > 100 µM | SK-MEL-5 > 100 µM
